{"source": "patent US9663764B2", "about": "“Generation of cardiomyocytes from human pluripotent stem cells” (Wisconsin Alumni Research Foundation, priority 2011, dated 2017)", "format_in_all_cases": "cell-based, human", "key": {"[1]": {"system": "19-9-11 shcat-2 and scramble lines", "assay": "RT-PCR/qPCR gene expression in CH-treated 19-9-11 shcat-2 and scramble lines", "protocol": "RT-PCR and Quantitative RT-PCR: Total RNA was prepared with the RNeasy mini kit (QIAGEN) and treated with DNase (QIAGEN). 1 μg RNA was reverse transcribed into cDNA via Oligo (dT) with Superscript III Reverse Transcriptase (Invitrogen). Real-time quantitative PCR was done in triplicate with iQ SYBR Green SuperMix (Bio-Rad). RT-PCR was done with Gotaq Master Mix (Promega) and then subjected to 2% agarose gel electrophoresis. ACTB was used as an endogenous control. To test whether induction of cardiomyocyte differentiation by GSK3 inhibitors requires β-catenin, the inventors treated the shcat-2 and scramble 19-9-11 lines with CH in mTeSR1 medium. While the shcat-2 line maintained an undifferentiated morphology, the scramble line appeared to undergo differentiation (FIG. 2E), similar to non-transduced lines treated with CH (FIGS. 1B and 2B). Induction of differentiation following CH treatment in the scramble control was further indicated by diminished SOX2 and NANOG expression at day 4 (FIG. 3C). […] After 4 days of CH treatment in mTeSR1, the percentage of cells expressing Oct4 decreased to 61% in the scramble line, while 98% of the shcat-2 cells expressed Oct4 (FIG. 3D). […] To better understand early mesoderm induction via GSK3 inhibition, the inventors analyzed expression of the early mesoderm gene T in scramble and shcat-2 19-9-11 lines. As CH concentration increased, the ratio of T expression in scramble to the shcat-2 line increased (FIG. 3E). Less than 2% of shcat-2 cells expressed brachyury upon exposure to different concentrations of CH treatment for 4 days."}, "H9 hESCs": {"system": "H9 hESCs", "assay": "Activin A/BMP4 directed cardiac differentiation with GSK3 inhibitor pretreatment, cTnT flow cytometry", "conditions": "GSK3 inhibitor (1 μM) 3 days prior to Activin A and BMP4; day 15; average", "protocol": "Cardiac directed differentiation using Activin A and BMP4: hPS cells maintained on Matrigel® in mTeSR1 were dissociated into single cells with Accutase (Invitrogen) at 37° C. for 5 min and then seeded onto a Matrigel®-coated cell culture dish at 100,000 cell/cm^2 in mTeSR1 supplemented with 5 μM ROCK inhibitor (Y-27632, Stemgent) (day −5). Cells were cultured in mTeSR1, changed daily. At day 0, cells were treated with 100 ng/ml Activin A (R&D) in RPMI/B27-insulin. After 24 hr, the medium was changed to RPMI/B27-insulin supplemented with 5 ng/ml BMP4 (R&D) for another 4 days. At day 5, the medium was changed with RPMI/B27-insulin. At day 7 the cells were transferred to RPMI/B27, and medim changed every 3 days. When using GSK3 inhibitors to stimulate differentiation, cells were cultured in mTeSR1 containing BIO or CHIR99021 from day −3 to day 0.\n(§1) Flow Cytometry: Cells were dissociated into single cells and then fixed with 1% paraformaldehyde for 20 min at room temperature and stained with primary and secondary antibodies in PBS plus 0.1% Triton X-100 and 0.5% BSA. For the cell proliferation assay, a 17-hour pulse of BrdU was performed to identify dividing cardiomyocytes (Zhang et al., Circ. Res. 104, e30-41 (2009)). Data were collected on a FACSCaliber flow cytometer (Beckton Dickinson) and analyzed using FlowJo.\nUndifferentiated H9 hESCs were cultured in the presence of 0-8 μM CH for three days prior to EB formation. EBs were cultured in suspension for 4 days before transferring to 0.1% gelatin coated plates. […] The inventors also applied the GSK3 inhibitors CH and BIO to undifferentiated H9 hESCs three days prior to directed differentiation to cardiomyocytes via Activin A and BMP4."}, "H9-7TGP cells": {"system": "H9-7TGP cells", "assay": "Immunofluorescent analysis of CH-induced H9-7TGP GFP+ cells", "conditions": "12 μM CHIR99021 in mTeSR1 for 4 days", "protocol": "Immunostaining: Cells were fixed with 4% paraformaldehyde for 15 min at room temperature and then stained with primary and secondary antibodies in PBS plus 0.4% Triton X-100 and 5% non-fat dry milk (Bio-Rad). Nuclei were stained with Gold Anti-fade Reagent with DAPI (Invitrogen). An epifluorescence microscope (Leica DM IRB) with a QImaging® Retiga 4000R camera was used for imaging analysis. In order to probe the activation of canonical Wnt/β-catenin signaling during hPS cell specification to cardiomyocytes, the inventors generated a series of promoter-reporter cell lines in H1 and H9 hESC, and 19-9-11 human iPSC lines. These reporter lines, integrated with a lentiviral 7TGP vector, express GFP under control of a consensus TCF/LEF binding sequence promoter which reports β-catenin activation (FIG. 2A) (Fuerer and Nusse, PLoS One 5:e9370 (2010)). […] Approximately 50% of H9-7TGP cells expressed GFP at 4 days post-addition of 15 μM CH."}, "[2]": {"system": "19-9-11 and IMR90C4 iPSCs", "assay": "Cardiac directed differentiation via small molecules on Synthemax plates, cTnT/MF20 flow cytometry", "conditions": "12 μM CH at day 0 and 5 μM IWP4 at day 3, day 15", "protocol": "cardiac directed differentiation via small molecules: Cells were dissociated and plated as described in the Activin/BMP4 protocol. When hPS cells maintained on Matrigel® or Synthemax plates achieved confluence, cells were treated with CH in RPMI/B27-insulin for 24 hr (day 0 to day 1). The medium was changed to RPMI/B27-insulin, followed by 2 μg/ml dox treatment at different times between day 1 and day 5 for transgenic cell lines. For genetically unmodified lines, 5 μM IWP2 (Tocris) or IWP4 (Stemgent) was added at day 3 and removed during the day 5 medium change. Cells were maintained in the RPMI/B27 starting from day 7, with the medium changed every 3 days.\nas §1\nWhile shRNA inhibition of β-catenin provides specific and facile temporal regulation of canonical Wnt signaling, this method requires genetic modification of the hPS cell line which limits its potential clinical utility. […]"}}}
{"smiles": "Cc1c[nH]c(-c2cnc(NCCNc3ccc(C#N)cn3)nc2-c2ccc(Cl)cc2Cl)n1", "note": "[CH]", "values": [{"measurement": "expression of mesendoderm and early mesoderm genes MIXL1, GSC, T, WNT3A and MSX1", "setting": "[1]; 12 μM CH for 4 days, scramble versus shcat-2", "value": "emerged in CH-treated scramble cells but not CH-treated shcat-2 cells"}, {"measurement": "ratio of T expression in scramble to the shcat-2 line", "setting": "[1]; increasing CH concentration, 2 days, qPCR", "value": "increased"}, {"measurement": "SOX2 and NANOG expression", "setting": "[1]; scramble control, CH treatment, day 4", "value": "diminished"}, {"measurement": "SOX2 and NANOG expression", "setting": "[1]; shcat-2 cells treated with CH", "value": "No significant differences"}, {"measurement": "cTNT-labeled cells", "setting": "H9 hESCs", "value": 50, "unit": "%"}, {"measurement": "Oct4, Isl1 and Nkx2.5 expression in CH-induced GFP+ cells", "setting": "H9-7TGP cells", "value": "did not express Oct4, but did express Isl1 and Nkx2.5"}, {"measurement": "cTNT+ or MF20+ cells", "setting": "[2]", "value": "approximately 85%"}]}
